Results reported in patent US20120046301A1, “Substituted Cyclic Carboxamide and Urea Derivatives as Ligands of the Vanilloid Receptor” (Gruenenthal GmbH, priority 2010, published 2012).

Biological target: T1, vanilloid receptor 1 (VR1/TRPV1 receptor) (Homo sapiens, UniProt Q8NER1)
T1 construct: expressed in transfected cells; host or cells: CHO K1 cells (ECACC), stably transfected
Assay: FLIPR assay, CHO K1 cells transfixed with the human VR1 gene, displacement of capsaicin (Pharmacological Method II)
Type: cell-based
Details: capsaicin (Cap) 100 nM, Ki from IC50 by Cheng-Prusoff
Procedure: In addition compounds according to the invention of the general formula (I) may be preferred, that in the FLIPR assay with CHO K1 cells that have been transfixed with the human VR1 gene effect in a concentration of less than 2000 nM, preferably less than 1000 nM, particularly preferably less than 300 nM, most particularly preferably less than 100 nM, even more preferably less than 75 nM, still most preferably less than 50 nM, and most of all preferably less than 10 nM, a 50% displacement of capsaicin that is present in a concentration of 100 nM.
In this connection the Ca^2+ inflow is quantified in the FLIPR assay with the aid of a Ca^2+-sensitive dye (Type Fluo-4, Molecular Probes Europe BV, Leiden, Netherlands) in a fluorescent imaging plate reader (FLIPR, Molecular Devices, Sunnyvale, USA), as described hereinafter.
The agonistic and antagonistic action of the substances to be investigated on the vanilloid receptor (VR1) can also be determined with the following assay. According to this assay the Ca^2+ inflow through the channel is quantified in the Fluorescent Imaging Plate Reader (FLIPR, Molecular Devices, Sunnyvale, USA) with the aid of a Ca^2+ sensitive dye (Type Fluo-4, Molecular Probes, Europe BV, Leiden, Netherlands).
Chinese hamster ovary cells (CHO K1 cells, European Collection of Cell Cultures (ECACC) Great Britain) are stably transfixed with the VR1 gene. For the functional investigations these cells are plated out on poly-D-lysine-coated, black 96-well plates with a clear floor (BD Biosciences, Heidelberg, Germany) in a density of 25,000 cells/well. The cells are incubated overnight at 37° C. and 5% CO2 in a culture medium (Nutrient Mixture ‘am's F12, 10 Vol % FCS (fetal calf serum), 18 μg/ml L-proline. The following day the cells are incubated with Fluo-4 (Fluo-4 2 μM, Pluronic F127 0.01 Vol %, Molecular Probes in HBSS (Hank's buffered saline solution), Gibco Invitrogen GmbH, Karlsruhe, Germany) for 30 minutes at 37° C. The plates are then washed 3 times with HBSS buffer and, after a further incubation for 15 minutes at RT, used in the FLIPR assay for the Ca^2+ measurement. The Ca^2+-dependent fluorescence is in this connection measured both before and after addition of the substances to be investigated (wavelength λex=488 nm, λem=540 nm). The quantification is carried out by measuring the highest fluorescence intensity (FC, Fluorescence Counts) over time.
The FLIPR protocol consists of 2 additions of substances. First of all the compounds to be tested (10 μM) are pipetted onto the cells and the Ca^2+ inflow is compared with the control (capsaicin 10 μM) (% activation referred to the Ca^2+ signal after addition of 10 μM capsaicin). After 5 minutes' incubation 100 nM capsaicin are added and the inflow of Ca^2+ is again determined.
Desensitising agonists and antagonists lead to a suppression of the Ca^2+ inflow. The % inhibition compared to the maximum achievable inhibition with 10 μM capsaicin is calculated.
Starting from the percentage displacement caused by different concentrations of the compounds of the general formula I to be tested, IC50 inhibiting concentrations that produce a 50% displacement of capsaicin were calculated. K, values for the test substances were obtained by reconversion using the (Cheng, Prusoff; Biochem. Pharmacol. 22, 3099-3108, 1973) relationship.

T1 sequence (Q8NER1 whole entry): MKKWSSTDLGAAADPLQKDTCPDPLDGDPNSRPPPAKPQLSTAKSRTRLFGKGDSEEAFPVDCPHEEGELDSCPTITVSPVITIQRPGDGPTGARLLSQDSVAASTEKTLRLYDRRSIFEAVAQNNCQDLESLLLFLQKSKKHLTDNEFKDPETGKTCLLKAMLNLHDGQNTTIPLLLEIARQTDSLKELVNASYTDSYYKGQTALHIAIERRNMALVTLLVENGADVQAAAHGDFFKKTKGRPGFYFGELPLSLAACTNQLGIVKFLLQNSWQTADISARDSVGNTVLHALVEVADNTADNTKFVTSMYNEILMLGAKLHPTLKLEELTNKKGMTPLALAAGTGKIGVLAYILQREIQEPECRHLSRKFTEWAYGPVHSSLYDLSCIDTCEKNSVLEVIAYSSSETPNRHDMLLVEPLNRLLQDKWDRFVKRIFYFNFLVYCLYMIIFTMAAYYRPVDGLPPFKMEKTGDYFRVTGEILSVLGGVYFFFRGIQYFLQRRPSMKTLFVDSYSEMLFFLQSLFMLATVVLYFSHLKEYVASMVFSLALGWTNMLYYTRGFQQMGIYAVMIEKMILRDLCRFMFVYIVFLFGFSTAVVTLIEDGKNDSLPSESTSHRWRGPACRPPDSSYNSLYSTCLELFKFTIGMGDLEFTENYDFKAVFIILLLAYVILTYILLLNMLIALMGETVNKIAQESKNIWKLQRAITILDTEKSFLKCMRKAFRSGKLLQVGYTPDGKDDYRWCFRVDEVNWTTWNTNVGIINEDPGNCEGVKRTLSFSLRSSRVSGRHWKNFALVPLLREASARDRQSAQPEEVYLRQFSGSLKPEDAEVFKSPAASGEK

Ki [nM] | Compound
56 | O=C(NCc1cc(C(F)(F)F)nn1-c1cccc(Cl)c1)N1CCN(c2ccc(Cl)cc2)CC1 [Example 54, 4-(4-chlorophenyl)-N-((1-(3-chlorophenyl)-3-(trifluoromethyl)-1H-pyrazol-5-yl)methyl)piperazine-1-carboxamide]
27 | O=C(NCc1cc(C(F)(F)F)nn1-c1cccc(Cl)c1)N1CC=C(c2ccc(F)cc2)CC1 [Example 34, N-((1-(3-chlorophenyl)-3-(trifluoromethyl)-1H-pyrazol-5-yl)methyl)-4-(4-fluorophenyl)-5,6-dihydropyridine-1(2H)-carboxamide]
35 | COc1cccc(N2CCN(C(=O)NCc3cc(C(F)(F)F)nn3-c3cccc(Cl)c3)CC2)c1 [Example 49, N-((1-(3-chlorophenyl)-3-(trifluoromethyl)-1H-pyrazol-5-yl)methyl)-4-(3-methoxyphenyl)piperazine-1-carboxamide]
7 | O=C(NCc1cc(C(F)(F)F)nn1-c1cccc(Cl)c1)N1CCN(c2ccccc2Cl)CC1 [Example 51, 4-(2-chlorophenyl)-N-((1-(3-chlorophenyl)-3-(trifluoromethyl)-1H-pyrazol-5-yl)methyl)piperazine-1-carboxamide]
63 | COc1ccc(N2CCN(C(=O)NCc3cc(C(F)(F)F)nn3-c3cccc(Cl)c3)CC2)cc1 [Example 50, N-((1-(3-chlorophenyl)-3-(trifluoromethyl)-1H-pyrazol-5-yl)methyl)-4-(4-methoxyphenyl)piperazine-1-carboxamide]
45 | O=C(NCc1cc(C(F)(F)F)nn1-c1cccc(Cl)c1)N1CCN(c2ccccc2F)CC1 [Example 46, N-((1-(3-chlorophenyl)-3-(trifluoromethyl)-1H-pyrazol-5-yl)methyl)-4-(2-fluorophenyl)piperazine-1-carboxamide]
36 | CC(C)(C)c1cc(CNC(=O)N2CCN(c3cccc(Cl)c3)CC2)n(-c2cccc(Cl)c2)n1 [Example 52, N-((3-tert-butyl-1-(3-chlorophenyl)-1H-pyrazol-5-yl)methyl)-4-(3-chlorophenyl)piperazine-1-carboxamide]
85 | O=C(NCc1cc(C2CC2)nn1-c1cccc(Cl)c1)N1CCN(c2ncccc2Cl)CC1 [Example 10, N-((1-(3-chlorophenyl)-3-cyclopropyl-1H-pyrazol-5-yl)methyl)-4-(3-chloropyridin-2-yl)piperazine-1-carboxamide]
27 | O=C(NCc1cc(C(F)(F)F)nn1-c1cccc(Cl)c1)N1CCC(c2ccccc2)CC1 [Example 26, N-((1-(3-chlorophenyl)-3-(trifluoromethyl)-1H-pyrazol-5-yl)methyl)-4-phenylpiperidine-1-carboxamide]
14 | O=C(NCc1cc(C(F)(F)F)nn1-c1cccc(Cl)c1)N1CCN(c2ncccc2Cl)CC1 [Example 3, N-((1-(3-chlorophenyl)-3-(trifluoromethyl)-1H-pyrazol-5-yl)methyl)-4-(3-chloropyridin-2-yl)piperazine-1-carboxamide]
68 | CCCCCn1nc(C(F)(F)F)cc1CNC(=O)N1CCN(c2ncccc2Cl)CC1 [Example 12, 4-(3-chloropyridin-2-yl)-N-((1-pentyl-3-(trifluoromethyl)-1H-pyrazol-5-yl)methyl)piperazine-1-carboxamide]
61 | COc1ccccc1N1CCN(C(=O)NCc2cc(C(F)(F)F)nn2-c2cccc(Cl)c2)CC1 [Example 48, N-((1-(3-chlorophenyl)-3-(trifluoromethyl)-1H-pyrazol-5-yl)methyl)-4-(2-methoxyphenyl)piperazine-1-carboxamide]
5 | CC(C)(C)c1cc(CNC(=O)N2CCN(c3ccccc3F)CC2)n(-c2cccc(Cl)c2)n1 [Example 5, N-((3-tert-butyl-1-(3-chlorophenyl)-1H-pyrazol-5-yl)methyl)-4-(2-fluorophenyl)piperazine-1-carboxamide]
48 | O=C(NCc1cc(C(F)(F)F)nn1-c1cccc(Cl)c1)N1CCN(c2ccc(F)cc2)CC1 [Example 47, N-((1-(3-chlorophenyl)-3-(trifluoromethyl)-1H-pyrazol-5-yl)methyl)-4-(4-fluorophenyl)piperazine-1-carboxamide]
42 | CC(C)(C)c1cc(CNC(=O)N2CCN(c3ccc(Cl)cc3)CC2)n(-c2cccc(Cl)c2)n1 [Example 53, N-((3-tert-butyl-1-(3-chlorophenyl)-1H-pyrazol-5-yl)methyl)-4-(4-chlorophenyl)piperazine-1-carboxamide]
16 | Cc1c(C(F)(F)F)nn(-c2cccc(Cl)c2)c1CNC(=O)N1CCN(c2ncccc2Cl)CC1 [Example 9, N-((1-(3-chlorophenyl)-4-methyl-3-(trifluoromethyl)-1H-pyrazol-5-yl)methyl)-4-(3-chloropyridin-2-yl)piperazine-1-carboxamide]
10 | CC(C)(C)c1cc(CNC(=O)N2CCN(c3ncccc3Cl)CC2)n(-c2cccc(Cl)c2)n1 [Example 2, N-((3-tert-butyl-1-(3-chlorophenyl)-1H-pyrazol-5-yl)methyl)-4-(3-chloropyridin-2-yl)piperazine-1-carboxamide]
4 | O=C(NCc1cc(C(F)(F)F)nn1-c1cccc(Cl)c1)N1CCN(c2ncccc2C(F)(F)F)CC1 [Example 56, N-((1-(3-chlorophenyl)-3-(trifluoromethyl)-1H-pyrazol-5-yl)methyl)-4-(3-(trifluoromethyl)pyridin-2-yl)piperazine-1-carboxamide]

Compound | Ki [nM]
N-((1-(3-chlorophenyl)-3-(trifluoromethyl)-1H-pyrazol-5-yl)methyl)-4-(1-(4-fluorophenyl)ethyl)piperazine-1-carboxamide [Example 22] | 41

Tested on: male mice (NMRI)
Assay: Formalin test on mice (second phase)
Type: in vivo
Details: dose 10.0 mg/kg
Procedure: The investigation to determine the antinociceptic action of the compounds according to the invention is carried out in the formalin test on male mice (NMRI, 20 bis 30 g body weight, Iffa, Credo, Belgium).
According to D. Dubuisson et al., Pain 1977, 4, 161-174, in the formalin test the first (early) phases ([…] after the formalin injection) and the second (late) phase (15 to 60 minutes after the formalin injection) are different. The early phase, which is a direct reaction to the formalin injection, represents a model of acute pain, whereas the late phase is regarded as a model of persistent (chronic) pain (T. J. Coderre et al., Pain 1993, 52, 259-285). The corresponding literature descriptions are hereby incorporated by way of reference and count as part of the disclosure.
The compounds according to the invention are investigated in the second phase of the formalin test, in order to obtain information on the effects of substances on chronic/inflammation pain.
The administration time of the compounds according to the invention before the formalin injection is selected depending on the type of administration of the compounds according to the invention. The intravenous administration of 10 mg/kg body weight of the test substances is carried out 5 minutes before the formalin injection. […]
The nociceptive behaviour is then continuously assessed by observing the animals for an investigation period of 3 minutes in the (second) late phase of the formalin test (21 to 24 minutes after the formalin injection). The pain behaviour is quantified by counting the time in seconds during which the animals licked and bit the affected paw during the investigation period.
The comparison is made in each case with control animals, which receive instead of the compounds according to the invention a neutral vehicle (0.9% aqueous sodium chloride solution) before the formalin injection. Based on the quantification of the pain behaviour, the effect of the substance in the formalin test is measured as the change compared to the corresponding control. […]

Compound | FTm, p.o. % effect @ dose (mg/kg) [% @10.0]
CC(C)(C)c1cc(CNC(=O)N2CCN(c3ncccc3Cl)CC2)n(-c2cccc(Cl)c2)n1 [Example 2, N-((3-tert-butyl-1-(3-chlorophenyl)-1H-pyrazol-5-yl)methyl)-4-(3-chloropyridin-2-yl)piperazine-1-carboxamide] | 1

Same assay, conditions: dose 30.0 mg/kg

Compound | FTm, p.o. % effect @ dose (mg/kg) [% @30.0]
CC(C)(C)c1cc(CNC(=O)N2CCN(c3ncccc3Cl)CC2)n(-c2cccc(Cl)c2)n1 [Example 2, N-((3-tert-butyl-1-(3-chlorophenyl)-1H-pyrazol-5-yl)methyl)-4-(3-chloropyridin-2-yl)piperazine-1-carboxamide] | 36

Same assay, conditions: dose 100.0 mg/kg

Compound | FTm, p.o. % effect @ dose (mg/kg) [% @100.0]
CC(C)(C)c1cc(CNC(=O)N2CCN(c3ncccc3Cl)CC2)n(-c2cccc(Cl)c2)n1 [Example 2, N-((3-tert-butyl-1-(3-chlorophenyl)-1H-pyrazol-5-yl)methyl)-4-(3-chloropyridin-2-yl)piperazine-1-carboxamide] | 66
